Results on 24 compounds are retold here after ChEMBL document CHEMBL4610032, “Inhibitory effects of triarylpyrazole derivatives on LPS-induced nitric oxide and PGE2 productions in murine RAW 264.7 macrophages” (Bioorg Med Chem Lett, 2020).

Broadly, the inhibition is the drop in the measured response relative to a control, in per cent. A word on the IC50: it is the midpoint of a concentration-inhibition curve.

Data set [1] has as its system RAW264.7. The data set is described as follows: Antiinflammatory activity against murine RAW264.7 cells assessed as inhibition of LPS-induced PGE2 production at 10 uM preincubated for 1 hr followed by LPS stimulation and measured after 24 hrs by EIA relative to control. The class given is functional. Conditions: Mus musculus.
In data set [2] the test system is RAW264.7. The data set is described as follows: Antiinflammatory activity against murine RAW264.7 cells assessed as inhibition of LPS-induced NO production at 10 uM preincubated for 1 hr followed by LPS stimulation and measured after 24 hrs by Griess assay relative to control. The class given is functional. Conditions: Mus musculus.
Data set [3] can be described thus: Cytotoxicity against murine RAW264.7 cells assessed as cell viability at 10 uM relative to control. The following applies: mouse, read-out: Activity. The class given is cell-based.
Data set [4] deals with RAW264.7. The data set is described as follows: Antiinflammatory activity against murine RAW264.7 cells assessed as inhibition of LPS-induced PGE2 production preincubated for 1 hr followed by LPS stimulation and measured after 24 hrs by EIA. Conditions: Mus musculus. The data set is classed as functional, cell-based.
The subject of data set [5] is RAW264.7. The data set is described as follows: Antiinflammatory activity against murine RAW264.7 cells assessed as downregulation of LPS-stimulated COX2 protein expression pretreated for 1 hr followed by LPS addition and measured after 24 hrs by Western blot analysis. The class given is functional, cell-based. Conditions: Mus musculus. On the technique in general: A western blot detects proteins with antibodies after separation by electrophoresis.

The test system of data set [6] is RAW264.7. The data set is described as follows: Antiinflammatory activity against murine RAW264.7 cells assessed as inhibition of LPS-induced PGE2 production at 10 nM preincubated for 1 hr followed by LPS stimulation and measured after 24 hrs by EIA relative to control. The class given is functional. The following applies: Mus musculus.
In data set [7] the test system is RAW264.7. The data set is described as follows: Antiinflammatory activity against murine RAW264.7 cells assessed as reduction in LPS-stimulated COX2 mRNA expression pretreated for 1 hr followed by LPS addition and measured after 4 hrs by qRT-PCR analysis. The data set is classed as functional, cell-based. The following applies: Mus musculus.
Data set [8] deals with RAW264.7. The data set is described as follows: Antiinflammatory activity against murine RAW264.7 cells assessed as inhibition of LPS-induced NO production at 40 uM preincubated for 1 hr followed by LPS stimulation and measured after 24 hrs by Griess assay relative to control. The data set is classed as functional. Conditions: Mus musculus. In general terms: The Griess reaction detects nitrite, a stable product of nitric oxide.

With `COc1cccc(-c2nn(-c3ccccc3)cc2-c2ccnc(NCCNC(=O)Nc3ccccc3)c2)c1`, the inhibition at 10 µM in the data set with RAW264.7 [1] was found to be 53.9%; in the data set on RAW264.7 [2] it was 12.2%. Besides, the viability at 10 µM in data set [3] came to 143%.

For the compound `O=C(NCCNc1cc(-c2cn(-c3ccccc3)nc2-c2cccc(O)c2)ccn1)c1cccc(C(F)(F)F)c1`, the inhibition at 10 µM in the data set with RAW264.7 [1] stood at 12.2%; with RAW264.7 [2], 18.6%. Also, in data set [3], the viability at 10 µM stood at 135%.

On to `COc1cccc(-c2nn(-c3ccccc3)cc2-c2ccnc(NCCCNC(=O)Nc3ccc(Cl)c(Cl)c3)c2)c1`, for which the 50% inhibitory concentration (IC50) with RAW264.7 [4] amounted to 4.21 µM. For the same compound, the inhibition at 10 µM was determined as 77.1% in the data set on RAW264.7 [1] and 38.6% with RAW264.7 [2]. Further, in data set [3], the viability at 10 µM came out at 121%. Further, in the data set with RAW264.7 [5], the inhibition result was “Dose-dependent effect”.

As to `COc1cccc(-c2nn(-c3ccccc3)cc2-c2ccnc(NCCCNC(=O)c3cccc(C(F)(F)F)c3)c2)c1`, the concentration for half-maximal inhibition (IC50) with RAW264.7 [4] was 5.62 µM. The inhibition at 10 µM in the data set on RAW264.7 [1] came out at 73.8%; in the data set on RAW264.7 [2], 28.8%. For the same compound, the viability at 10 µM in data set [3] came to 115%.

As for `COc1cccc(-c2nn(-c3ccccc3)cc2-c2ccnc(NCCNC(=O)c3ccc(F)cc3)c2)c1`, the inhibition at 10 µM turned out to be 47.9% in the data set with RAW264.7 [1] and 15.4% in the data set with RAW264.7 [2]. Also, the viability at 10 µM in data set [3] is 136%.

For `CS(=O)(=O)Nc1ccc([N+](=O)[O-])cc1OC1CCCCC1` [NS-398], the inhibition at 0.01 µM in the data set with RAW264.7 [6] was found to be 59.5%.

As to `O=C(NCCCNc1cc(-c2cn(-c3ccccc3)nc2-c2cccc(O)c2)ccn1)c1ccccc1`, the inhibition at 10 µM came out at 12.6% in the data set with RAW264.7 [1] and 2.1% with RAW264.7 [2]. In data set [3], the viability at 10 µM is 145%.

Regarding `O=C(NCCCNc1cc(-c2cn(-c3ccccc3)nc2-c2cccc(O)c2)ccn1)c1ccc(O)cc1`, the figures for the inhibition at 10 µM in the data set with RAW264.7 [1] and with RAW264.7 [2] were 31.1% and 39.7%, respectively. Also, the viability at 10 µM in data set [3] is 126%.

Turning to `COc1cccc(-c2nn(-c3ccccc3)cc2-c2ccnc(NCCCNC(=O)Nc3ccccc3)c2)c1`, the inhibition at 10 µM amounted to 56.3% in the data set with RAW264.7 [1] and 22.2% in the data set with RAW264.7 [2]. Further, in data set [3], the viability at 10 µM is 143%.

Regarding `COc1ccc(C(=O)NCCCNc2cc(-c3cn(-c4ccccc4)nc3-c3cccc(OC)c3)ccn2)cc1`, the IC50 in the data set with RAW264.7 [4] turned out to be 2.94 µM. Moreover, the inhibition at 10 µM in the data set on RAW264.7 [1] was determined as 75.4%; in the data set with RAW264.7 [2], 48.8%. Also, the inhibition result with RAW264.7 [7] and with RAW264.7 [5] was “Dose-dependent effect” each time. Moreover, the viability at 10 µM in data set [3] stood at 112%.

`COc1cccc(-c2nn(-c3ccccc3)cc2-c2ccnc(NCCCNC(=O)Nc3cccc(C(F)(F)F)c3)c2)c1`: in the data set with RAW264.7 [2], the inhibition at 10 µM came to 31.3%. In data set [3], the viability at 10 µM came out at 124%.

`COc1cccc(-c2nn(-c3ccccc3)cc2-c2ccnc(NCCNC(=O)Nc3ccc(Cl)c(Cl)c3)c2)c1`: in the data set on RAW264.7 [4], the IC50 stood at 4.51 µM. Further, the inhibition at 10 µM was found to be 76.1% in the data set with RAW264.7 [1] and 22% in the data set on RAW264.7 [2]. Besides, the viability at 10 µM in data set [3] amounted to 129%.

Regarding `O=C(NCCCNc1cc(-c2cn(-c3ccccc3)nc2-c2cccc(O)c2)ccn1)c1cccc(C(F)(F)F)c1`, in the data set on RAW264.7 [1], the inhibition at 10 µM was determined as 11.6%. Moreover, in data set [3], the viability at 10 µM was 123%.

On to `O=C(NCCNc1cc(-c2cn(-c3ccccc3)nc2-c2cccc(O)c2)ccn1)c1ccccc1`, for which the inhibition at 10 µM with RAW264.7 [1] came out at 20.9%; in the data set with RAW264.7 [2], 12.2%. Also, in data set [3], the viability at 10 µM came to 105%.

In the case of `O=C(NCCNc1cc(-c2cn(-c3ccccc3)nc2-c2cccc(O)c2)ccn1)c1ccc(O)cc1`, the inhibition at 10 µM in the data set on RAW264.7 [1] is -56.4%; with RAW264.7 [2], 34.5%. Besides, in data set [3], the viability at 10 µM was found to be 124%.

For the compound `O=C(NCCCNc1cc(-c2cn(-c3ccccc3)nc2-c2cccc(O)c2)ccn1)c1ccc(F)cc1`, in the data set on RAW264.7 [4], the concentration for half-maximal inhibition (IC50) stood at 7.06 µM. Also, the inhibition at 10 µM with RAW264.7 [1] worked out at 63.1%; with RAW264.7 [2] it was 32.6%. For the same compound, the viability at 10 µM in data set [3] worked out at 120%.

For `COc1cccc(-c2nn(-c3ccccc3)cc2-c2ccnc(NCCCNC(=O)c3ccc(F)cc3)c2)c1`, the results for the inhibition at 10 µM with RAW264.7 [1] and in the data set on RAW264.7 [2] were 28.9% and 18.6%, respectively. Besides, the viability at 10 µM in data set [3] was 133%.

On to `COc1cccc(-c2nn(-c3ccccc3)cc2-c2ccnc(NCCNC(=O)c3cccc(C(F)(F)F)c3)c2)c1`, for which the results for the inhibition at 10 µM with RAW264.7 [1] and in the data set on RAW264.7 [2] were 58.1% and 19.1%, respectively. For the same compound, the viability at 10 µM in data set [3] was 125%.

As for `O=C(NCCNc1cc(-c2cn(-c3ccccc3)nc2-c2cccc(O)c2)ccn1)c1ccc(F)cc1`, the inhibition at 10 µM with RAW264.7 [1] is -1.9%; in the data set with RAW264.7 [2], 20.4%. In addition, the viability at 10 µM in data set [3] is 127%.

On to `COc1cccc(-c2nn(-c3ccccc3)cc2-c2ccnc(NCCCNC(=O)c3ccccc3)c2)c1`, for which the inhibition at 10 µM was 6.1% in the data set with RAW264.7 [1] and 18.7% with RAW264.7 [2]. Further, in data set [3], the viability at 10 µM was determined as 118%.

For `CC(=N)NCCCC[C@H](N)C(=O)O` [L-NIL], in the data set on RAW264.7 [8], the inhibition at 40 µM is 31.5%.

With `COc1cccc(-c2nn(-c3ccccc3)cc2-c2ccnc(NCCNC(=O)Nc3cccc(C(F)(F)F)c3)c2)c1`, the IC50 in the data set with RAW264.7 [4] was determined as 5.11 µM. In addition, the inhibition at 10 µM with RAW264.7 [1] was 69.9%; in the data set on RAW264.7 [2], 26.1%. Further, the viability at 10 µM in data set [3] was 165%.

Take `COc1ccc(C(=O)NCCNc2cc(-c3cn(-c4ccccc4)nc3-c3cccc(OC)c3)ccn2)cc1`: the inhibition at 10 µM with RAW264.7 [1] worked out at 59.6%; in the data set on RAW264.7 [2], 12.3%. Besides, in data set [3], the viability at 10 µM was 116%.

In the case of `COc1cccc(-c2nn(-c3ccccc3)cc2-c2ccnc(NCCNC(=O)c3ccccc3)c2)c1`, the inhibition at 10 µM with RAW264.7 [1] came out at 36.2%; in the data set with RAW264.7 [2] it was 12.8%. In addition, the viability at 10 µM in data set [3] stood at 132%.
